Data set [1] has as its target T1, Solute carrier organic anion transporter family member 1B3 (OATP1B3) (Homo sapiens, UniProt Q9NPD5).
T1 sequence (Q9NPD5 whole entry): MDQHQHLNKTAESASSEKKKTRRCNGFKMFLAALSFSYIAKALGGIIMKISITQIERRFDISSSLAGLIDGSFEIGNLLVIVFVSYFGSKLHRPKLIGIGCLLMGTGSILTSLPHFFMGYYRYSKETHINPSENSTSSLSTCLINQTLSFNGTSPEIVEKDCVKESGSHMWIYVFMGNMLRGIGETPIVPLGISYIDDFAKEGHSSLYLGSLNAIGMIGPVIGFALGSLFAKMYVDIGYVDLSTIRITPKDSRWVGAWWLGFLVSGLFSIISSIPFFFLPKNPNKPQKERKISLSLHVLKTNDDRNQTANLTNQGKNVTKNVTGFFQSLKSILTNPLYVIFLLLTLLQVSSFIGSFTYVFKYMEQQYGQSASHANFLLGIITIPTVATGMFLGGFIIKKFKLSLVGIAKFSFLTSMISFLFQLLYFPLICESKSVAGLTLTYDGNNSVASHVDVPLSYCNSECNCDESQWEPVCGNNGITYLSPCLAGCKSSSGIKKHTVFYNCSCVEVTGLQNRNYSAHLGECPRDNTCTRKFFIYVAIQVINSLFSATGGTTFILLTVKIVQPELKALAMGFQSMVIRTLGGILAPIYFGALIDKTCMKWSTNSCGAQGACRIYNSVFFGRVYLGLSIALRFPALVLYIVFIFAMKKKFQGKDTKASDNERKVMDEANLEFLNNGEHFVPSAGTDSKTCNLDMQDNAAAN
Nature of the data set: (§1) TP_TRANSPORTER: uptake in Xenopus laevis oocytes. To be noted: Xenopus laevis oocytes expressing OATP1B3 (SLCO1B3).

Substrate in data set [2]: CSCC[C@H](NC(=O)[C@H](Cc1ccc(OS(=O)(=O)O)cc1)NC(=O)[C@@H](N)CC(=O)O)C(=O)NCC(=O)N[C@@H](Cc1c[nH]c2ccccc12)C(=O)N[C@@H](CCSC)C(=O)N[C@@H](CC(=O)O)C(=O)N[C@@H](Cc1ccccc1)C(N)=O
The description is as §1. The format is functional, cell-based, Oocyte.

Take `CSCC[C@H](NC(=O)[C@H](Cc1ccc(OS(=O)(=O)O)cc1)NC(=O)[C@@H](N)CC(=O)O)C(=O)NCC(=O)N[C@@H](Cc1c[nH]c2ccccc12)C(=O)N[C@@H](CCSC)C(=O)N[C@@H](CC(=O)O)C(=O)N[C@@H](Cc1ccccc1)C(N)=O` [SINCALIDE]: in data set [1], the Km turned out to be 11.1 µM.

B1: Solute carrier organic anion transporter family member 1B2 (Rattus norvegicus) (protein)
chain: MDHTQQSRKAAEAQPSRSKQTRFCDGFKLFLAALSFSYICKALGGVVMKSSITQIERRFDIPSSISGLIDGGFEIGNLLVIVFVSYFGSKLHRPKLIGIGCFIMGIGSILTALPHFFMGYYKYAKENDIGSLGNSTLTCFINQMTSPTGPSPEIVEKGCEKGLKSHMWIYVLMGNMLRGIGETPIVPLGISYLDDFAKEGHTSMHLGTLHTIAMIGPILGFIMSSVFAKIYVDVGYVDLNSVRITPNDARWVGAWWLSFIVNGLLCITSSIPFFFLPKIPKRSQEERKNSVSLHAPKTDEEKKHMTNLTKQEEQDPSNMTGFLRSLRSILTNEIYVIFLILTLLQVSGFIGSFTYLFKFIEQQFGRTASQANFLLGIITIPTMATAMFLGGYIVKKFKLTSVGIAKFVFFTSSVAYAFQFLYFPLLCENKPFAGLTLTYDGMNPVDSHIDVPLSYCNSDCSCDKNQWEPICGENGVTYISPCLAGCKSFRGDKKPNNTEFYDCSCISNSGNNSAHLGECPRYKCKTNYYFYIILQVTVSFFTAMGSPSLILILMKSVQPELKSLAMGFHSLIIRALGGILAPIYYGAFIDRTCIKWSVTSCGKRGACRLYNSRLFGFSYLGLNLALKTPPLFLYVVLIYFTKRKYKRNDNKTLENGRQFTDEGNPDSVNKNGYYCVPYDEQSNETPL
Consider B1, for which the Km in data set [2] amounted to 14.9 µM.

For the origin of these results see ChEMBL document CHEMBL2074523, “Hepatic uptake of cholecystokinin octapeptide by organic anion-transporting polypeptides OATP4 and OATP8 of rat and human liver” (Gastroenterology, 2001).
